PubChem BioAssay (NCI)
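Each compound was tested at five concentrations against cells in 96-well plates for 48 hours. At the TGI there is no net growth.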

Tests used:
Assay in all cases: NCI-60 cell line screen, 48 h
[1] = test system: OVCAR-3 ovarian
[2] = test system: OVCAR-5 ovarian
[3] = test system: KM20L2 colon
[4] = test system: TK-10 renal
[5] = test system: SK-OV-3 ovarian
[6] = test system: K-562 leukemia
[7] = test system: EKVX NSCLC
[8] = test system: A498 renal
[9] = test system: IGROV1 ovarian
[10] = test system: SF-295 CNS
[11] = test system: RPMI-8226 leukemia
[12] = test system: HCT-116 colon
[13] = test system: HOP-18 NSCLC
[14] = test system: NCI-H522 lung
[15] = test system: CCRF-CEM leukemia
[16] = test system: UACC-62 melanoma
[17] = test system: HOP-62 NSCLC
[18] = test system: SF-268 CNS
[19] = test system: NCI-H226 lung
[20] = test system: SK-MEL-5 melanoma
[21] = test system: SF-539 CNS
[22] = test system: SNB-75 CNS
[23] = test system: KM12 colon
[24] = test system: UACC-257 melanoma
[25] = test system: UO-31 renal
[26] = test system: HT29 colon
[27] = test system: COLO 205 colon
[28] = test system: SNB-19 CNS
[29] = test system: LXFL 529 NSCLC
[30] = test system: A549 NSCLC
[31] = test system: M14 melanoma
[32] = test system: DMS 114 small cell lung
[33] = test system: SR leukemia
[34] = test system: OVCAR-4 ovarian
[35] = test system: OVCAR-8 ovarian
[36] = test system: U251 CNS
[37] = test system: HL-60(TB) leukemia
[38] = test system: MALME-3M melanoma
[39] = test system: HOP-92 NSCLC
[40] = test system: HCC-2998 colon
[41] = test system: NCI-H23 lung
[42] = test system: SK-MEL-28 melanoma
[43] = test system: SW-620 colon
[44] = test system: MOLT-4 leukemia
[45] = test system: SN12C renal
[46] = test system: LOX IMVI melanoma
[47] = test system: CAKI-1 renal
[48] = test system: DLD-1 colon
[49] = test system: 786-0 renal
[50] = test system: M19-MEL melanoma
[51] = test system: ACHN renal
[52] = test system: SK-MEL-2 melanoma
[53] = test system: HCT-15 colon
[54] = test system: NCI-H460 lung
[55] = test system: SNB-78 CNS
[56] = test system: RXF 393 renal
[57] = test system: XF 498 CNS
[58] = test system: DMS 273 small cell lung
[59] = test system: RXF-631 renal

O=S1(=O)c2cc(S(=O)(=O)n3ccnc3)ccc2NC2=NCCCN21
TGI [1]: 47.8 µM
TGI [2]: > 100 µM
TGI [3]: 41.7 µM
TGI [4]: > 100 µM
TGI [5]: 46.9 µM
TGI [6]: > 100 µM
TGI [7]: > 100 µM
TGI [8]: 62.3 µM
TGI [9]: > 100 µM
TGI [10]: > 100 µM
TGI [11]: > 100 µM
TGI [12]: 85.8 µM
TGI [13]: > 100 µM
TGI [14]: 30.9 µM
TGI [15]: 73.3 µM
TGI [16]: > 100 µM
TGI [17]: 63.6 µM
TGI [18]: > 100 µM
TGI [19]: 46.7 µM
TGI [20]: 49.6 µM
TGI [21]: 40.1 µM
TGI [22]: 88.1 µM
TGI [23]: 89.5 µM
TGI [24]: > 100 µM
TGI [25]: > 100 µM
TGI [26]: 46.3 µM
TGI [27]: 35.2 µM
TGI [28]: > 100 µM
TGI [29]: > 100 µM
TGI [30]: > 100 µM
TGI [31]: > 100 µM
TGI [32]: 49.6 µM
TGI [33]: 75.6 µM
TGI [34]: > 100 µM
TGI [35]: 70 µM
TGI [36]: 41.5 µM
TGI [37]: 36.4 µM
TGI [38]: > 100 µM
TGI [39]: > 100 µM
TGI [40]: 55.3 µM
TGI [41]: > 100 µM
TGI [42]: > 100 µM
TGI [43]: 73.8 µM
TGI [44]: > 100 µM
TGI [45]: > 100 µM
TGI [46]: > 100 µM
TGI [47]: > 100 µM
TGI [48]: > 100 µM
TGI [49]: 99.6 µM
TGI [50]: > 100 µM
TGI [51]: > 100 µM

N#Cc1ccc(OCCSCCCCCCCCCCSCCOc2ccc(C#N)cc2)cc1
TGI [1]: > 100 µM
TGI [2]: > 100 µM
TGI [3]: > 100 µM
TGI [4]: > 100 µM
TGI [5]: > 100 µM
TGI [6]: > 100 µM
TGI [7]: > 100 µM
TGI [52]: > 100 µM
TGI [8]: > 100 µM
TGI [9]: > 100 µM
TGI [10]: > 100 µM
TGI [11]: > 100 µM
TGI [13]: > 100 µM
TGI [14]: > 100 µM
TGI [15]: > 100 µM
TGI [16]: > 100 µM
TGI [17]: > 100 µM
TGI [18]: > 100 µM
TGI [19]: > 100 µM
TGI [20]: > 100 µM
TGI [21]: > 100 µM
TGI [22]: > 100 µM
TGI [23]: > 100 µM
TGI [24]: > 100 µM
TGI [25]: > 100 µM
TGI [27]: > 100 µM
TGI [53]: > 100 µM
TGI [29]: > 100 µM
TGI [30]: > 100 µM
TGI [31]: > 100 µM
TGI [32]: > 100 µM
TGI [54]: > 100 µM
TGI [55]: > 100 µM
TGI [56]: > 100 µM
TGI [35]: > 100 µM
TGI [36]: > 100 µM
TGI [37]: > 100 µM
TGI [38]: > 100 µM
TGI [40]: > 100 µM
TGI [41]: > 100 µM
TGI [42]: > 100 µM
TGI [43]: > 100 µM
TGI [44]: > 100 µM
TGI [45]: > 100 µM
TGI [46]: > 100 µM
TGI [49]: > 100 µM
TGI [50]: > 100 µM
TGI [51]: > 100 µM

COC(=O)/C(=N\NC(N)=O)C(C#N)c1ccccc1 (stereo not given)
TGI [1]: > 100 µM
TGI [2]: > 100 µM
TGI [3]: > 100 µM
TGI [57]: > 100 µM
TGI [4]: > 100 µM
TGI [5]: > 100 µM
TGI [6]: > 100 µM
TGI [7]: > 100 µM
TGI [52]: > 100 µM
TGI [8]: > 100 µM
TGI [10]: > 100 µM
TGI [11]: > 100 µM
TGI [12]: > 100 µM
TGI [13]: > 100 µM
TGI [14]: > 100 µM
TGI [15]: > 100 µM
TGI [16]: > 100 µM
TGI [17]: > 100 µM
TGI [18]: > 100 µM
TGI [19]: > 100 µM
TGI [21]: > 100 µM
TGI [22]: > 100 µM
TGI [23]: > 100 µM
TGI [24]: > 100 µM
TGI [25]: > 100 µM
TGI [26]: > 100 µM
TGI [27]: > 100 µM
TGI [28]: > 100 µM
TGI [53]: > 100 µM
TGI [29]: > 100 µM
TGI [30]: > 100 µM
TGI [31]: > 100 µM
TGI [32]: > 100 µM
TGI [54]: > 100 µM
TGI [55]: > 100 µM
TGI [56]: > 100 µM
TGI [34]: > 100 µM
TGI [35]: > 100 µM
TGI [36]: > 100 µM
TGI [37]: > 100 µM
TGI [38]: > 100 µM
TGI [40]: > 100 µM
TGI [41]: > 100 µM
TGI [42]: > 100 µM
TGI [43]: > 100 µM
TGI [44]: > 100 µM
TGI [45]: > 100 µM
TGI [46]: > 100 µM
TGI [48]: > 100 µM
TGI [49]: > 100 µM
TGI [50]: > 100 µM
TGI [51]: > 100 µM

CC(C)(CCl)NC(=O)c1cccc(C(=O)NC(C)(C)CCl)n1
TGI [1]: > 100 µM
TGI [2]: > 100 µM
TGI [3]: > 100 µM
TGI [4]: > 100 µM
TGI [5]: > 100 µM
TGI [6]: > 100 µM
TGI [7]: > 100 µM
TGI [52]: > 100 µM
TGI [8]: > 100 µM
TGI [9]: > 100 µM
TGI [10]: > 100 µM
TGI [11]: > 100 µM
TGI [12]: > 100 µM
TGI [14]: > 100 µM
TGI [15]: > 100 µM
TGI [17]: > 100 µM
TGI [18]: > 100 µM
TGI [19]: > 100 µM
TGI [20]: > 100 µM
TGI [21]: > 100 µM
TGI [22]: > 100 µM
TGI [23]: > 100 µM
TGI [25]: > 100 µM
TGI [26]: > 100 µM
TGI [27]: > 100 µM
TGI [28]: > 100 µM
TGI [53]: > 100 µM
TGI [29]: > 100 µM
TGI [30]: > 100 µM
TGI [31]: > 100 µM
TGI [32]: > 100 µM
TGI [54]: > 100 µM
TGI [55]: > 100 µM
TGI [56]: > 100 µM
TGI [33]: > 100 µM
TGI [34]: > 100 µM
TGI [36]: > 100 µM
TGI [37]: > 100 µM
TGI [38]: > 100 µM
TGI [39]: > 100 µM
TGI [40]: > 100 µM
TGI [41]: > 100 µM
TGI [42]: > 100 µM
TGI [58]: > 100 µM
TGI [59]: > 100 µM
TGI [43]: > 100 µM
TGI [44]: > 100 µM
TGI [45]: > 100 µM
TGI [46]: > 100 µM
TGI [47]: > 100 µM
TGI [48]: > 100 µM
TGI [49]: > 100 µM
TGI [50]: > 100 µM
TGI [51]: > 100 µM
